Laboratory results published in patent US12570605B2, “Indole compounds, and preparation methods, and uses thereof” (Shenzhen 01 Life Science and Technology Co., Ltd., priority 2021, dated 2026).
Entries after “also recorded” stand apart in the source; their conditions may differ.

How the values were obtained:
[1] = system: mouse model with ear AD-like symptoms induced by calcipotriol (MC903); assay: Mouse model with ear AD-like symptoms induced by calcipotriol (MC903), second batch of experiments (Embodiment 32); assay type: in vivo, BALB/c mouse; details: MC903 5 nmol/mouse every day, 9 days; for reducing the total serum IgE levels of the mice / reducing ear thicknesses of the mice: vs model control group (MC903+EtOH), Mann-Whitney test; for therapeutic effects on AD-like symptoms in the ear of mice (ear inflammation, tissue HE staining, parameters of multiple experiments): screening over both batches
Procedure: (§1) A mouse model with ear AD-like symptoms induced by calcipotriol (MC903) was used to investigate these compounds in terms of the treatment activity for AD.
(§2) Referring to the Patent with a publication number of CN 110368386 A, a mouse model induced by MC903 (Calcipotriene) was prepared, wherein both ears of the BALB/c mouse model were applied with MC903, MC903+indole-3-aldehyde (IAId), or MC903+the compound prepared from the embodiments for 11 consecutive days, respectively, and total serum IgE levels, ear thicknesses, and weight loss in relative to the weight at the beginning of the experiment were tested at the end of the experiment.
(§3) The data shown in the results were average values ±SD of five independently repeated trials. Significance analysis was performed using Mann-Whitney test on the differences of corresponding parameters of the mice with the treatment group (MC903+ethanol (EtOH)), which was only administrated with MC903, wherein * indicated P<0.05, ** indicated P<0.01; *** indicated P<0.001.
Therefore, in the second batch of drug tests, the dosage of MC903 was decreased to 5 nmol/mouse every day, and the test period was reduced to 9 days.
(§4) EtOH group was a Blank control group, which was only administrated with ethanol. MC903+ EtOH group was a model control group, which was administrated with Calcipotriene and ethanol. The remaining groups were the groups which were administered with MC903 to construct the model, and then administered with different drugs. Indole-3-aldehyde (IAId) group was the group administered with IAId. Indole-3-methanol (I3C) group was the group administered with I3C. The other compound groups were the groups administered with corresponding compounds.

[2] = system: mouse model with ear AD-like symptoms induced by calcipotriol (MC903); assay: Mouse model with ear AD-like symptoms induced by calcipotriol (MC903), first batch of experiments (Embodiment 32); assay type: in vivo, BALB/c mouse; details: MC903 6.9 nmol/mouse every day; for therapeutic effects on AD-like symptoms in the ear of mice (combined with ear inflammation and tissue HE staining): 11 days; for reducing ear thicknesses of the mice / reducing the total serum IgE levels of the mice: both ears, 11 consecutive days, vs model control group (MC903+EtOH), Mann-Whitney test
Procedure: as §1, §2, §3
In this batch of experiments, the dosage of MC903, a drug for constructing the models, was 6.9 nmol/mouse every day, and the experimental results of Compounds 1, 2, 3, 6, 7, 19, 20, 28, 29, 30, 34, 37, 38, and 39 in this batch were shown in FIGS. 11 to 13.
as §4, with “then administrated” for “then administered”, “with IAId, indole-3-methanol” for “with IAId. Indole-3-methanol”

[3] = system: mouse model with ear AD-like symptoms induced by calcipotriol (MC903); assay: Optimum effective concentration in treatment of AD-like symptoms, MC903 mouse model (Embodiment 33); assay type: in vivo; details: vs group only administrated with MC903; for inhibitory effect on systematic inflammation (lower total serum IgE levels and improvement on AD-like symptoms in the mice ear): dosages per Table 11
Procedure: The above screened compounds having therapeutic effect on AD-like symptoms were selected to further determine the optimum effective concentration.
Referring to the animal model method in the Embodiment 32, dosages of drugs for each group were determined according to the table below, and the optimal effective concentration in treatment of AD-like symptoms was explored by comparing the differences in ear thicknesses, the total serum IgE levels and the weight loss of the mice with those of the treatment group only administrated with MC903.

Structure (SMILES): CCCCCCCCCCCCCC(=O)OCn1cc(CO)c2ccccc21 [Compound 41, (3-(hydroxymethyl)-1H-indol-1-yl)methyl tetradecanoate]
- reducing the total serum IgE levels of the mice [1]: statistically significant difference

Structure (SMILES): CC(=O)Oc1ccccc1C(=O)OCOC(=O)n1cc(CO)c2ccccc21 [Compound 26, ((2-acetoxybenzoyl)oxy)methyl 3-(hydroxymethyl)-1H-indole-1-carboxylate]
- reducing the total serum IgE levels of the mice [1]: statistically significant difference

Structure (SMILES): CCCCCCCC(=O)OCn1cc(C=O)c2ccccc21 [Compound 29, (3-formyl-1H-indol-1-yl)methyl octanoate]
- therapeutic effects on AD-like symptoms in the ear of mice (combined with ear inflammation and tissue HE staining) [2]: significant therapeutic effects
- reducing ear thicknesses of the mice [2]: statistically significant difference; also recorded: excellent effects
- reducing the total serum IgE levels of the mice [2]: statistically significant difference
- therapeutic effects on AD-like symptoms in the ear of mice (ear inflammation, tissue HE staining, parameters of multiple experiments) [1]: therapeutic effects
- reducing ear thicknesses of the mice [1]: statistically significant difference
- inhibitory effect on systematic inflammation (lower total serum IgE levels and improvement on AD-like symptoms in the mice ear) [3]: good inhibitory effect

Structure (SMILES): CCCCCCCCCCCC(=O)OCOC(=O)n1cc(C=O)c2ccccc21 [Compound 4, (dodecanoyloxy)methyl 3-formyl-1H-indole-1-carboxylate]
- therapeutic effects on AD-like symptoms in the ear of mice (ear inflammation, tissue HE staining, parameters of multiple experiments) [1]: therapeutic effects
- reducing ear thicknesses of the mice [1]: statistically significant difference
- reducing the total serum IgE levels of the mice [1]: statistically significant difference; also recorded: excellent effects
- inhibitory effect on systematic inflammation (lower total serum IgE levels and improvement on AD-like symptoms in the mice ear) [3]: good inhibitory effect; also recorded: excellent inhibitory effect

Structure (SMILES): CCCCCCCC(=O)OCOC(=O)n1cc(C=O)c2ccccc21 [Compound 2, (octanoyloxy)methyl 3-formyl-1H-indole-1-carboxylate]
- reducing the total serum IgE levels of the mice [2]: statistically significant difference

Structure (SMILES): CC(=O)Oc1ccccc1C(=O)OCOC(=O)n1cc(C=O)c2ccccc21 [Compound 8, ((2-acetoxybenzoyl)oxy)methyl 3-formyl-1H-indole-1-carboxylate]
- reducing ear thicknesses of the mice [1]: statistically significant difference
- reducing the total serum IgE levels of the mice [1]: statistically significant difference

Structure (SMILES): CCCCCCCCCCCCCC(=O)OCOC(=O)n1cc(CO)c2ccccc21 [Compound 23, (tetradecanoyloxy)methyl 3-(hydroxymethyl)-1H-indole-1-carboxylate]
- reducing the total serum IgE levels of the mice [1]: statistically significant difference

Structure (SMILES): O=C(Cc1ccccc1Nc1c(Cl)cccc1Cl)OCOC(=O)n1cc(CO)c2ccccc21 [Compound 27, (2-(2-((2,6-dichlorophenyl)amino)phenyl)acetoxy)methyl 3-(hydroxymethyl)-1H-indole-1-carboxylate]
- reducing ear thicknesses of the mice [1]: statistically significant difference
- reducing the total serum IgE levels of the mice [1]: statistically significant difference

Structure (SMILES): CC(=O)Oc1ccccc1C(=O)OCn1cc(C=O)c2ccccc21 [Compound 35, (3-formyl-1H-indol-1-yl)methyl 2-acetoxybenzoate]
- therapeutic effects on AD-like symptoms in the ear of mice (ear inflammation, tissue HE staining, parameters of multiple experiments) [1]: therapeutic effects
- reducing the total serum IgE levels of the mice [1]: statistically significant difference; also recorded: excellent effects
- inhibitory effect on systematic inflammation (lower total serum IgE levels and improvement on AD-like symptoms in the mice ear) [3]: good inhibitory effect

Structure (SMILES): COCCOCCOCCOCCOCC(=O)OCn1cc(C=O)c2ccccc21 [Compound 34, (3-formyl-1H-indol-1-yl)methyl 2,5,8,11,14-pentaoxahexadecan-16-oate]
- reducing ear thicknesses of the mice [2]: statistically significant difference
- reducing the total serum IgE levels of the mice [2]: statistically significant difference

Structure (SMILES): CCCCCC(=O)OCOC(=O)n1cc(C=O)c2ccccc21 [Compound 1, (hexanoyloxy)methyl 3-formyl-1H-indole-1-carboxylate]
- reducing ear thicknesses of the mice [2]: statistically significant difference
- reducing the total serum IgE levels of the mice [2]: statistically significant difference

Structure (SMILES): O=Cc1cn(C(=O)OCOC(=O)Cc2ccccc2Nc2c(Cl)cccc2Cl)c2ccccc12 [Compound 9, (2-(2-((2,6-dichlorophenyl)amino)phenyl)acetoxy)methyl 3-formyl-1H-indole-1-carboxylate]
- therapeutic effects on AD-like symptoms in the ear of mice (ear inflammation, tissue HE staining, parameters of multiple experiments) [1]: therapeutic effects
- reducing ear thicknesses of the mice [1]: statistically significant difference; also recorded: excellent effects
- reducing the total serum IgE levels of the mice [1]: statistically significant difference; also recorded: excellent effects
- therapeutic effect on AD-like symptoms in the mouse ear ([3]; at different concentration): significant therapeutic effect
- inhibitory effect on systematic inflammation (lower total serum IgE levels and improvement on AD-like symptoms in the mice ear) [3]: good inhibitory effect

Structure (SMILES): O=Cc1c[nH]c2ccccc12 [IAId, indole-3-carboxaldehyde, reference compound]
- reducing ear thicknesses of the mice [2]: significantly reduced
- reducing the total serum IgE levels of the mice [2]: significantly reduced

Structure (SMILES): CCCCCCCCCC(=O)OCn1cc(C=O)c2ccccc21 [Compound 30, (3-formyl-1H-indol-1-yl)methyl decanoate]
- therapeutic effects on AD-like symptoms in the ear of mice (combined with ear inflammation and tissue HE staining) [2]: significant therapeutic effects
- reducing ear thicknesses of the mice [2]: statistically significant difference; also recorded: excellent effects
- reducing the total serum IgE levels of the mice [2]: statistically significant difference; also recorded: excellent effects
- therapeutic effects on AD-like symptoms in the ear of mice (ear inflammation, tissue HE staining, parameters of multiple experiments) [1]: therapeutic effects
- reducing ear thicknesses of the mice [1]: statistically significant difference
- reducing the total serum IgE levels of the mice [1]: statistically significant difference; also recorded: excellent effects
- inhibitory effect on systematic inflammation (lower total serum IgE levels and improvement on AD-like symptoms in the mice ear) [3]: good inhibitory effect; also recorded: excellent inhibitory effect

Structure (SMILES): CCCCCCCCCCCC(=O)OCOC(=O)n1cc(CO)c2ccccc21 [Compound 22, (dodecanoyloxy)methyl 3-(hydroxymethyl)-1H-indole-1-carboxylate]
- therapeutic effects on AD-like symptoms in the ear of mice (ear inflammation, tissue HE staining, parameters of multiple experiments) [1]: therapeutic effects
- reducing the total serum IgE levels of the mice [1]: statistically significant difference; also recorded: excellent effects
- inhibitory effect on systematic inflammation (lower total serum IgE levels and improvement on AD-like symptoms in the mice ear) [3]: good inhibitory effect

Structure (SMILES): CCCCCCCCCC(=O)OCn1cc(CO)c2ccccc21 [Compound 39, (3-(hydroxymethyl)-1H-indol-1-yl)methyl decanoate]
- reducing ear thicknesses of the mice [2]: statistically significant difference
- reducing the total serum IgE levels of the mice [2]: statistically significant difference

Structure (SMILES): CCCCCC(=O)OCOC(=O)n1cc(CO)c2ccccc21 [Compound 19, (hexanoyloxy)methyl 3-(hydroxymethyl)-1H-indole-1-carboxylate]
- reducing ear thicknesses of the mice [2]: statistically significant difference

Structure (SMILES): OCc1c[nH]c2ccccc12 [Compound I3C, indole-3-methanol, reference compound]
- reducing ear thicknesses of the mice [2]: significantly reduced
- reducing the total serum IgE levels of the mice [2]: significantly reduced

Structure (SMILES): CCCCCC(=O)OCn1cc(CO)c2ccccc21 [Compound 37, (3-(hydroxymethyl)-1H-indol-1-yl)methyl hexanoate]
- reducing the total serum IgE levels of the mice [2]: statistically significant difference

Structure (SMILES): CCCCCCCCCCCCCCCC(=O)OCn1cc(C=O)c2ccccc21 [Compound 33, (3-formyl-1H-indol-1-yl)methyl palmitate]
- reducing the total serum IgE levels of the mice [1]: statistically significant difference

Structure (SMILES): CCCCCCCCCCCCCCCC(=O)OCOC(=O)n1cc(CO)c2ccccc21 [Compound 24, (palmitoyloxy)methyl 3-(hydroxymethyl)-1H-indole-1-carboxylate]
- reducing the total serum IgE levels of the mice [1]: statistically significant difference

Structure (SMILES): CCCCCCCC(=O)OCOC(=O)n1cc(CO)c2ccccc21 [Compound 20, (octanoyloxy)methyl 3-(hydroxymethyl)-1H-indole-1-carboxylate]
- reducing ear thicknesses of the mice [2]: statistically significant difference
